Source: ChEMBL document CHEMBL5729018, “MAPK inhibitors” (2022)

What was measured:
[1] = target: T1, Mitogen-activated protein kinase 14 (Homo sapiens, UniProt Q16539); experiment: (§1) Fluorescence polarisation (FP) assay for active p38alpha MARK: FP signals were measured with a PHERAstar microplate reader (BMG Labtech) using black, low-binding half-area 96 well plates (Corning). Each binding data point was carried out in duplicate or triplicate. Data were recorded in millipolarisation (mP) units and measured at an excitation wavelength of 485 nm and an emission wavelength of 520 nm. Tris(hydroxymethyl)aminomethane (Tris) assay buffer was used in all binding experiments and consisted of 10 mM Tris, […], and 3.5 mM 3-((3-cholamidopropyl)dimethylammonium)-1-propanesulfonate (Chaps) at pH 8.0. The recombinant active His-tag p38α MAPK used in the ligand binding assays were prepared as described by Bukhtiyarova et al.
[2] = target: T1, Mitogen-activated protein kinase 14; experiment: Each binding data point was carried out in duplicate or triplicate. Data were recorded in millipolarisation (mP) units and measured at an excitation wavelength of 485 nm and an emission wavelength of 520 nm. Tris(hydroxymethyl)aminomethane (Tris) assay buffer was used in all binding experiments and consisted of 10 mM Tris, 50 nM potassium chloride, and 3.5 mM 3-((3-cholamidopropyl)dimethylammonium)-1-propanesulfonate (Chaps) at pH 8.0.
[3] = target: T1, Mitogen-activated protein kinase 14; experiment: as §1, with “assay:” for “assay for active p38alpha MARK:”, “8.0.” for “8.0. The recombinant active His-tag p38α MAPK used in the ligand binding assays were prepared as described by Bukhtiyarova et al.”

T1 sequence (Q16539 whole entry): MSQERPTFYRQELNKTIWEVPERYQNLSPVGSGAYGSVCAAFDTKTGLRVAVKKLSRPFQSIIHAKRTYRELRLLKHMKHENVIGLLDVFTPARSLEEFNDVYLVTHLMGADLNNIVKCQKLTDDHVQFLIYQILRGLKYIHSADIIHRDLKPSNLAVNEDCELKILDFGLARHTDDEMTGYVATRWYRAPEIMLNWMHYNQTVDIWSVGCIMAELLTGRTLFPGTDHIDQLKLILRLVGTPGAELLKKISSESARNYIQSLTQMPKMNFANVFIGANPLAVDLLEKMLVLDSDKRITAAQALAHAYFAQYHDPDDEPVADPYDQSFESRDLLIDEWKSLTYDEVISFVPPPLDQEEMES

Ki [1] [nM]	Ki [2] [nM]	IC50 [3] [nM]	SMILES
630	2100	–	OCC#Cc1cc(-c2ccncc2)c(-c2ccc(F)cc2)s1
560	2000	160	OCCC#Cc1cc(-c2ccncc2)c(-c2ccc(F)cc2)s1
–	–	30	OCCC#Cc1nc(-c2ccc(F)cc2)c(-c2ccncc2)n1CCCc1ccccc1 [RWJ-67657]
